This note sets out measurements from patent US20150004110A1, “NOVEL ANTI-AGING AND DEPIGMENTING COSMETIC COMPOSITIONS” (DIVERCHIM, priority 2011, published 2015).

The target of one experiment is T1, PPARδ (h) (Homo sapiens, UniProt Q03181).
T1 sequence (Q03181 1-441): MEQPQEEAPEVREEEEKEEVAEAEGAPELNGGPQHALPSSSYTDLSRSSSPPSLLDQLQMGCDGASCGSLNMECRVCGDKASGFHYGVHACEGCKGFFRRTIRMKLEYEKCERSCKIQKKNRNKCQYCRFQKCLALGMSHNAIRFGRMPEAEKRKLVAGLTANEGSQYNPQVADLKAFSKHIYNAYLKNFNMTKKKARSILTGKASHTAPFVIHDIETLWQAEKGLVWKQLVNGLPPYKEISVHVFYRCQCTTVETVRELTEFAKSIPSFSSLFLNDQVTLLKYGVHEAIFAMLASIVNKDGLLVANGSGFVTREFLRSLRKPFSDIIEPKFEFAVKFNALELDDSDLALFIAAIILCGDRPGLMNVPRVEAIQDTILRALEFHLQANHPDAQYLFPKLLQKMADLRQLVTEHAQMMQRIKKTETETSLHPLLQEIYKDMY
Nature of the experiment: PPARδ antagonist effect, coactivator Alpha screen. It counts as biochemical. How it is done: The agonist or antagonist activity of compound 1 on the PPAR receptors was tested by fluorescence techniques. • Material and Methods
The results are expressed as: • percentage of control specific agonist response (measured specific response/control specific agonist response)×100) and • percentage inhibition of the control specific agonist response (100−((measured specific response)/control specific agonist response)×100)) obtained in the presence of compound 1.
The EC50 values (concentration at which the maximum specific response is 50%) and the IC50 values (concentration at which the maximum control specific agonist response is inhibited by 50%) are determined by non-linear regression analysis of the concentration-response curves with a mean replicated value using adjustment of Hill's equation
For the antagonists, the apparent dissociation constants (KB) were calculated using the modified Cheng-Prusoff equation

The test system of experiment [1] is skin explants (abdominoplasty). Nature of the experiment: Histological assessment of the general morphology of skin explants maintained in survival. Conditions: 2 μg/mL in DMSO, after 9 days of survival. It counts as cell-based, human. The method, then:
(§1) 1. Preparation of the explants • During abdominoplasty of a person, 45 skin explants were prepared. The explants were put in BEM medium (BIO-EC's Explants Medium) for survival at 37° C. in humid atmosphere, enriched with 5% CO2.
(§2) 2. Application of the products • The solutions are prepared in DMSO from pure products, in order to obtain final concentrations of […] by incorporating an identical volume of 10 μl in each well and for each treatment. The treatment was carried out in the survival medium on days 0, 1, 2, 5 and 7.
(§3) 3. Taking samples • On D0, the 3 explants of batch TO were taken and each explant was cut in two. One part was fixed in buffered formol for observation of the general morphology. The other was frozen and stored at −80° C. • On D5 and D9, 3 explants from each batch were taken and treated in the same way.
4. […]
5. Microscopic observations • The microscopic observations were carried out by light microscopy and fluorescence microscopy, using a Orthoplan-type Leica microscope, with ×25 objective. The images were recorded with a Sony DXC 390P tri CCD camera and stored using the Leica IM1000 data archiving software. • The general morphology was observed on sections in paraffin after staining with Masson trichrome, Goldner variant according to procedure MO-H-157. […]

The next experiment concerns Transglutaminase K, TGK. Kind of experiment: In situ immunolabelling of TGK in keratinocytes. Conditions: normal human epidermal keratinocytes. The experiment is classed as cell-based. An excerpt: Transglutaminase K, TGK, and filaggrin are two protein markers of epidermal differentiation involved in arrangement of the keratin filaments and formation of the envelope of the stratum corneum.

Experiment [2] concerns B16 melanocytes stimulated with NDP-MSH. Kind of experiment: Anti-melanogenesis activity: melanin synthesis in B16 melanocytes stimulated with NDP-MSH. The experiment is classed as cell-based. The method, then: The depigmenting effect was evaluated on a line of type B16 melanocytes stimulated with NDP-MSH, (natural hormone stimulating melanogenesis; Melanocyte Stimulating Hormone, [Nle, DPhe]-α-MSH). Melanin synthesis was evaluated.
The anti-melanogenesis activity of the compounds in solution in DMSO was evaluated by measuring melanin synthesis in a model of B16 melanocytes stimulated with a stable derivative of α-MSH (natural melanogenesis stimulating hormone): NDP-MSH.
The melanocytes were seeded in a 96-well plate and were cultured for 24 h (37° C., 5% CO2, DMEM 1 g/L glucose without phenol red supplemented with glucose at 3 g/L, L-glutamine at 2 mM, penicillin at 50 U/mL, streptomycin at 50 μg/mL, foetal calf serum (FCS) at 10%). After incubation, the culture medium was then replaced with culture medium supplemented or not supplemented (unstimulated control) with a stable derivative of α-MSH and containing or not containing (controls) the test compounds or the reference (kojic acid at 25, 100, 400, 800 μg/mL). Each experiment was carried out with n=3, apart from the controls carried out with n=6, then the cells were incubated for 72 h. Wells without cells received in parallel the same quantities of medium supplemented or not supplemented with NDP-MSH and containing or not containing the test compounds or the reference in order to quantify the background noise associated with the presence of the compounds.
After incubation for 72 hours, the total melanin (intra- and extracellular) was quantified by measuring the absorption at 405 nm of each sample (direct reading of the culture plates) against a standard range of melanin (melanin concentrations tested from 0.78 to 100 μg/mL). The background noise, measured in the wells without cells, was subtracted from the measured values so as only to take into account the effect connected with melanin production, without taking into account the possible interference connected with the presence of the compounds. The results were expressed as percentage of melanin relative to the control as well as percentage inhibition.
The operating conditions are the same as in Example 12.

Another experiment has as its system collagen IV. Nature of the experiment: Staining and immunolabelling of skin explant sections: collagen IV. The experiment is classed as cell-based, human. To be noted: treated skin explant sections. How it is done: as §1, §2, §3
4. Histological treatment • After fixation for 48 hours in buffered formol, the samples were dehydrated and embedded in paraffin using a Leica 1020 automatic dehydrator. They were embedded according to procedure MO-H-153 using a Leica EG 1160 coating station. Sections of 5 μm were prepared according to procedure MO-H-173 using a Minot-type microtome, Leica RM 2125 and mounted on Superfrost® histological glass slides.
6. Staining and immunolabelling
Immunolabelling will be carried out on sections with the appropriate antibody. […]

The mark [3] stands for this setting: Melanocyte, NDP-MSH stimulated B16, 72 h, Table 2, read-out: Standardized data Inhibition (%) (melanin).
Where [4] appears, read: Melanocyte, comparison with 2 reference molecules, Table 3, read-out: Standardized data Inhibition (%) (melanin).

Each structure is given as a SMILES string. Read-outs that look alike come from different tables or passages of the source.

For `Oc1ccccc1CCOc1ccc(F)cc1` [Compound 1, 2-[2-(4-fluoro-phenoxy)-ethyl]-phenol], the inhibition at 10 µM on PPARδ (h) (10^−5 M, read-out: % Inhibition of control agonist response) is -5%; in experiment [2] (Melanocyte, 10 μM, NDP-MSH stimulated B16, 72 h, Table 2, read-out: Standardized data Inhibition (%) (melanin)), 0%. Further, at PPARδ (h) (10^−6 M, read-out: % Inhibition of control agonist response), the inhibition at 1 µM was -2%. Also, the inhibition at 0.1 µM on PPARδ (h) (10^−7 M, read-out: % Inhibition of control agonist response) is 0%. Further, on PPARδ (h) (10^−7 to 10^−5 M), the “PPARδ antagonist activity (conclusion in words)” value is “not an antagonist”. Also, the “General morphology: epidermal structure and papillary dermis” value in experiment [1] was “very clear epidermal and dermal restructuring activity”. In the experiment on Transglutaminase K, TGK, the “Protein expression of TGK” value is “concentration-dependent stimulation of protein expression”. Also, the “Depigmenting effect (inhibition of melanin synthesis), in words” value in experiment [2] (30 μM and 100 μM) is listed as “clear inhibitory effect”. The “Depigmenting effectiveness compared with the two reference products” value in experiment [2] (30 μM and 100 μM, versus rucinol and [869743-37-3]) is reported as “slightly more effective than the two reference products used”. The inhibition at 30 µM in experiment [2] (setting [3]) was 93%; in experiment [2] (setting [4]), 98%. Further, the inhibition at 100 µM in experiment [2] (setting [3]) came out at 112%; in experiment [2] (setting [4]) it was 124%. In the experiment on collagen IV, the “Collagen IV along the dermal-epidermal junction” value is recorded as “clear overexpression”.

As a reminder, the inhibition is the relative decrease from the control value, in per cent.
